Assay results published in patent US8981092B2, “Substituted 3,4-dihydro-2H-pyrrolo[1,2-a]pyrazin-1-ones as modulators of protein kinase activity” (Nerviano Medical Sciences S.r.l., priority 2008, dated 2015).

Molecular target: Full-length human PIM-1 (Homo sapiens, UniProt P11309)
Conditions: read-out: PIM-1 IC50; ATP 200 μM, Aktide 25 μM, enzyme 1 nM
Description: Biochemical Assay for Inhibitors of PIM-1 Kinase Activity
The inhibitory activity of putative kinase inhibitors and the potency of selected compounds were determined using a trans-phosphorylation assay.
Specific peptide or protein substrates are trans-phosphorylated by their specific ser-thr or tyr kinase in the presence of ATP traced with ^33P-γ-ATP, and in the presence of their own optimal buffer and cofactors.
At the end of the phosphorylation reaction, more than 98% unlabeled ATP and radioactive ATP is captured by an excess of the ion exchange dowex resin; the resin then settles down to the bottom of the reaction plate by gravity.
Supernatant is subsequently withdrawn and transferred into a counting plate, then evaluated by β-counting.
The buffer for PIM-1 assay was composed of HEPES 50 mM, at pH 7.5, with 10 mM MgCl2, 1 mM DTT, 3 μM NaVO3, and 0.2 mg/ml BSA
ATP concentration: 200 μM
Enzyme concentration: 1 nM
The test mix consisted of:
1) 3× Enzyme mix (done in Kinase Buffer 3×), 5 μL/well
2) 3× substrate and ATP mix (done in ddH2O), together with ^33P-γ-ATP, 5 μL/well
3) 3× test compounds (diluted into ddH2O-3% DMSO)-5 μL/well
a) for percent inhibition studies (HTS), individual dilution plates at 1 mM are diluted at a 3× concentration (30 μM) in ddH2O (3% DMSO=final concentration) using a Beckman NX automated pipetting platform. The same instrument is used for distributing the diluted mother plates into the test plates.
An automated station for serial dilutions (Biomek FX, Beckman) is used for producing 1:3 dilutions in 100% DMSO, from line A1 to A10, and for all the seven compounds in the column.
At the start of the run, the robot aspirates 5 μL of ATP mix, makes an air gap inside the tips (2 μL) and aspirates 2 μL of PIM mix. The following dispensation into the plates allows the kinase reaction to start upon 3 cycles of mixing, done by the robot itself.
The robot incubates the plates for 60 minutes at room temperature, and then stops the reaction by pipetting 70 μL of dowex resin suspension into the reaction mix. Three cycles of mixing are done immediately after the addition of the resin.
Another mixing cycle is performed after all the plates are stopped, this time using normal tips: the plates are then allowed to rest for about one hour in order to maximize ATP capture.
Data are analysed by an internally customized version of the SW package “Assay Explorer” that provides either % inhibition for primary assays or sigmoidal fittings of the ten-dilutions curves for IC50 determination in the secondary assays/hit confirmation routines.

Full-length human PIM-1, sequence (P11309 whole entry): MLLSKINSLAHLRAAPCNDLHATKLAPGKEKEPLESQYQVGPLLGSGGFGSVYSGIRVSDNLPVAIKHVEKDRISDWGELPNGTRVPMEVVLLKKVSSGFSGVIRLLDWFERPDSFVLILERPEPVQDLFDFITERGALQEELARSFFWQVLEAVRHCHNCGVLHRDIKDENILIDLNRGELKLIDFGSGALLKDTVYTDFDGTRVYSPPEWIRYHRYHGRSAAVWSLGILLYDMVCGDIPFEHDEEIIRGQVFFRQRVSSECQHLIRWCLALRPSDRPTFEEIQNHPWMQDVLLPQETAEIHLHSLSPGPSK

First: O=C(C[C@@H]1CNC(=O)c2cc(-c3ccnc(F)c3)cn21)N[C@H](CO)C1CCCCC1 [A157-M-B61 isomer R]
Second: O=C(C[C@H]1CNC(=O)c2cc(-c3cccc(F)c3)cn21)N[C@H](CO)C1CCCCC1 [A127-M-B61 isomer S]
The IC50 of the first is 14-fold higher: 270 nM for the first, 20 nM for the second.

`O=C(CC1CNC(=O)c2cc(-c3cn[nH]c3)cn21)NCC1CCCCC1` (stereo not drawn) [Compound A144-M-B22] and `O=C(CC1CNC(=O)c2cc(-c3ccsc3)cn21)NCC1CCCCC1` (stereo not drawn) [Compound A33-M-B22] are within 1.5-fold of each other in IC50: 480 nM for the first, 460 nM for the second.

Compared with `CC(C)CCNC(=O)CC1CNC(=O)c2cc(-c3cccc(F)c3)cn21` (stereo not drawn) [Compound A127-M-B32], `CC(C)CCNC(=O)CC1CNC(=O)c2cc(-c3cccc(Cl)c3)cn21` (stereo not drawn) [Compound A150-M-B32] is 2.7-fold lower in IC50: 610 nM for the first, 230 nM for the second. The second is the more potent here.

First: O=C(CC1CNC(=O)c2cc(-c3ccccc3F)cn21)NCc1ccccc1 (stereo not drawn) [Compound A128-M-B14]
Second: O=C(CC1CNC(=O)c2cc(-c3ccc(F)cc3F)cn21)NCc1ccccc1 (stereo not drawn) [Compound A151-M-B14]
The IC50 of the first is 2-fold higher: 200 nM for the first, 100 nM for the second.

First: O=C(C[C@H]1CNC(=O)c2cc(-c3cccc(C(F)(F)F)c3)cn21)N[C@H](CO)c1ccccc1 [A133-M-B62 isomer S]
Second: O=C(C[C@@H]1CNC(=O)c2cc(-c3cccc(C(F)(F)F)c3)cn21)N[C@H](CO)c1ccccc1 [A133-M-B62 isomer R]
The IC50 of the first is 37-fold lower: 130 nM for the first, 4830 nM for the second.

Going from `O=C(CC1CNC(=O)c2cc(-c3cccc(Cl)c3)cn21)NCc1ccncc1` (stereo not drawn) [Compound A150-M-B39] to `O=C(CC1CNC(=O)c2cc(-c3cccc(F)c3)cn21)NCc1ccncc1` (stereo not drawn) [Compound A127-M-B39], the IC50 rises from 220 nM to 570 nM (2.6-fold). The first is the more potent here.

`O=C(CC1CNC(=O)c2cc(-c3cccc(Cl)c3)cn21)NC1CCCC1` (stereo not drawn) [Compound A150-M-B26] and `O=C(CC1CNC(=O)c2cc(-c3cccc(Cl)c3)cn21)NC1CCCCC1` (stereo not drawn) [Compound A150-M-B24] are within 1.5-fold of each other in IC50: 240 nM for the first, 210 nM for the second.

Going from `O=C(C[C@@H]1CNC(=O)c2cc(-c3ccnc(F)c3)cn21)N[C@H](CO)Cc1ccccc1` [A157-M-B64 isomer R] to `O=C(C[C@@H]1CNC(=O)c2cc(-c3cccc(F)c3)cn21)N[C@H](CO)Cc1ccccc1` [A127-M-B64 isomer R], the IC50 rises from 700 nM to 2910 nM (4.2-fold).

Compared with `O=C(CC1CNC(=O)c2cc(-c3ccccc3F)cn21)NCc1ccncc1` (stereo not drawn) [Compound A128-M-B39], `O=C(CC1CNC(=O)c2cc(-c3ccc(F)cc3F)cn21)NCc1ccncc1` (stereo not drawn) [Compound A151-M-B39] is 7.6-fold higher in IC50: 540 nM for the first, 4110 nM for the second.

Compared with `O=C(CC1CNC(=O)c2cc(-c3ccc(F)c(F)c3)cn21)NCc1ccccc1` (stereo not drawn) [Compound A139-M-B14], `O=C(CC1CNC(=O)c2cc(-c3ccc(F)c(F)c3)cn21)NCc1ccncc1` (stereo not drawn) [Compound A139-M-B39] is 4.5-fold higher in IC50: 220 nM for the first, 980 nM for the second. The first is the more potent here.

`O=C(CC1CNC(=O)c2cc(-c3ccc(F)c(F)c3)cn21)NCc1ccc(F)cc1` (stereo not drawn) [Compound A139-M-B30] and `O=C(CC1CNC(=O)c2cc(-c3cccc(C(F)(F)F)c3)cn21)NCc1ccc(F)cc1` (stereo not drawn) [Compound A133-M-B30] are within 1.5-fold of each other in IC50: 410 nM for the first, 610 nM for the second.

`O=C(CC1CNC(=O)c2cc(-c3cccc(OC(F)(F)F)c3)cn21)NCc1cccc(F)c1` (stereo not drawn) [Compound A134-M-B30] and `O=C(CC1CNC(=O)c2cc(-c3cccc(OC(F)(F)F)c3)cn21)NCc1ccccc1` (stereo not drawn) [Compound A134-M-B14] are within 1.5-fold of each other in IC50: 890 nM for the first, 720 nM for the second.

Compared with `O=C(CC1CNC(=O)c2cc(-c3ccc4c(c3)OCO4)cn21)NCC1CCCCC1` (stereo not drawn) [Compound A132-M-B22], `O=C(CC1CNC(=O)c2cc(-c3ccc(F)c(F)c3)cn21)NCC1CCCCC1` (stereo not drawn) [Compound A139-M-B22] is 4-fold lower in IC50: 360 nM for the first, 90 nM for the second. The second is the more potent here.

`O=C(CC1CNC(=O)c2cc(-c3cccc(F)c3)cn21)NCc1ccccc1` (stereo not drawn) [Compound A127-M-B14] and `O=C(CC1CNC(=O)c2cc(-c3cccc(Cl)c3)cn21)NCc1ccccc1` (stereo not drawn) [Compound A150-M-B14] are within 1.5-fold of each other in IC50: 180 nM for the first, 140 nM for the second.

Compared with `O=C(CC1CNC(=O)c2cc(-c3cn[nH]c3)cn21)NCc1ccccc1` (stereo not drawn) [Compound A144-M-B14], `O=C(CC1CNC(=O)c2cc(-c3cn[nH]c3)cn21)NCc1ccc(F)cc1` (stereo not drawn) [Compound A144-M-B30] is lower in IC50: ≥ 10000 nM for the first, 1100 nM for the second. The second is the more potent here.

`CN1CCN(C(=O)CC2CNC(=O)c3cc(-c4cc(F)ccc4F)cn32)C(c2ccccc2)C1` (mixture of isomers) [Compound A158-M-B63] and `CN1CCN(C(=O)CC2CNC(=O)c3cc(-c4cccc(F)c4)cn32)C(c2ccccc2)C1` (mixture of isomers) [Compound A127-M-B63] are within 1.5-fold of each other in IC50: 400 nM for the first, 390 nM for the second.

Compared with `O=C(CC1CNC(=O)c2cc(-c3cccc(Cl)c3)cn21)NCCN1CCOCC1` (stereo not drawn) [Compound A150-M-B38], `CCCNC(=O)CC1CNC(=O)c2cc(-c3cccc(Cl)c3)cn21` (stereo not drawn) [Compound A150-M-B25] is 2.4-fold lower in IC50: 1060 nM for the first, 450 nM for the second. The second is the more potent here.

Going from `O=C(CC1CNC(=O)c2cc(-c3ccsc3)cn21)NCc1cccc(F)c1` (stereo not drawn) [Compound A33-M-B30] to `O=C(CC1CNC(=O)c2cc(-c3cccc(F)c3)cn21)NCc1cccc(F)c1` (stereo not drawn) [Compound A127-M-B30], the IC50 falls from 580 nM to 190 nM (3.1-fold).

Compared with `O=C(CC1CNC(=O)c2cc(-c3ccc(F)c(F)c3)cn21)NCc1ccco1` (stereo not drawn) [Compound A139-M-B40], `O=C(CC1CNC(=O)c2cc(-c3ccccc3F)cn21)NCc1ccco1` (stereo not drawn) [Compound A128-M-B40] is 1.9-fold higher in IC50: 130 nM for the first, 250 nM for the second.

First: O=C(C[C@H]1CNC(=O)c2cc(-c3cccc(F)c3)cn21)N[C@H](CO)c1ccccc1 [A127-M-B62 isomer S]
Second: NC[C@@H](NC(=O)C[C@H]1CNC(=O)c2cc(-c3cccc(F)c3)cn21)c1ccccc1 [A127-M-B65 isomer S]
The IC50 of the first is 9-fold higher: 90 nM for the first, 10 nM for the second.

First: O=C(CC1CNC(=O)c2cc(-c3cccc(C(F)(F)F)c3)cn21)NCC1CCCCC1 (stereo not drawn) [Compound A133-M-B22]
Second: O=C(C[C@@H]1CNC(=O)c2cc(-c3cccc(C(F)(F)F)c3)cn21)N[C@H](CO)C1CCCCC1 [A133-M-B61 isomer R]
The IC50 of the first is 16-fold lower: 380 nM for the first, 5940 nM for the second. The first is the more potent here.

Going from `Cc1ccccc1NC(=O)CC1CNC(=O)c2cc(-c3cccc(Cl)c3)cn21` (stereo not drawn) [Compound A150-M-B36] to `O=C(CC1CNC(=O)c2cc(-c3cccc(Cl)c3)cn21)Nc1ccccc1` (stereo not drawn) [Compound A150-M-B52], the IC50 falls from 1390 nM to 430 nM (3.2-fold).

Going from `COCCCNC(=O)CC1CNC(=O)c2cc(-c3cccc(Cl)c3)cn21` (stereo not drawn) [Compound A150-M-B42] to `O=C(CC1CNC(=O)c2cc(-c3cccc(Cl)c3)cn21)NCC1CC1` (stereo not drawn) [Compound A150-M-B48], the IC50 falls from 590 nM to 120 nM (4.9-fold). The second is the more potent here.

First: NC[C@@H](NC(=O)C[C@H]1CNC(=O)c2cc(-c3cccc(C(F)(F)F)c3)cn21)c1ccccc1 [A133-M-B65 isomer S]
Second: O=C(CC1CNC(=O)c2cc(-c3cccc(C(F)(F)F)c3)cn21)NCc1ccccc1 (stereo not drawn) [Compound A133-M-B14]
The IC50 of the first is 16-fold lower: 50 nM for the first, 810 nM for the second.

Compared with `O=C(C[C@H]1CNC(=O)c2cc(-c3cccc(C(F)(F)F)c3)cn21)N[C@H](CO)C1CCCCC1` [A133-M-B61 isomer S], `O=C(C[C@@H]1CNC(=O)c2cc(-c3cc(F)ccc3F)cn21)N[C@H](CO)C1CCCCC1` [A158-M-B61 isomer R] is 12-fold higher in IC50: 70 nM for the first, 860 nM for the second. The first is the more potent here.

Going from `NCC(NC(=O)CC1CNC(=O)c2cc(-c3cc(F)ccc3F)cn21)c1ccccc1` (stereo not drawn) [A158-M-B65 isomer S] to `O=C(C[C@@H]1CNC(=O)c2cc(-c3cc(F)ccc3F)cn21)N[C@H](CO)c1ccccc1` [A158-M-B62 isomer R], the IC50 rises from 30 nM to 550 nM (18-fold). The first is the more potent here.

First: O=C(C[C@@H]1CNC(=O)c2cc(-c3ccnc(F)c3)cn21)N[C@H](CO)c1ccccc1 [A157-M-B62 isomer R]
Second: CN1CCN(C(=O)CC2CNC(=O)c3cc(-c4ccnc(F)c4)cn32)C(c2ccccc2)C1 (mixture of isomers) [Compound A157-M-B63]
The IC50 of the first is 1.7-fold higher: 1140 nM for the first, 690 nM for the second. The second is the more potent here.

Going from `C=CCN1CCN(C(=O)CC2CNC(=O)c3cc(-c4cccc(Cl)c4)cn32)CC1` (stereo not drawn) [Compound A150-M-B49] to `O=C1NCC(CC(=O)N2CCCCCC2)n2cc(-c3cccc(Cl)c3)cc21` (stereo not drawn) [Compound A150-M-B45], the IC50 rises from 230 nM to 580 nM (2.5-fold).

Going from `COC(=O)c1cccc(-c2cc3n(c2)C(CC(=O)NCc2cccc(F)c2)CNC3=O)c1` (stereo not drawn) [Compound A142-M-B30] to `COC(=O)c1cccc(-c2cc3n(c2)C(CC(=O)NCc2ccccc2)CNC3=O)c1` (stereo not drawn) [Compound A142-M-B14], the IC50 rises from 2520 nM to 4830 nM (1.9-fold). The first is the more potent here.

`CC(C)CCNC(=O)CC1CNC(=O)c2cc(-c3ccc(F)cc3F)cn21` (stereo not drawn) [Compound A151-M-B32] and `CC(C)CCNC(=O)CC1CNC(=O)c2cc(-c3ccccc3F)cn21` (stereo not drawn) [Compound A128-M-B32] are within 1.5-fold of each other in IC50: 490 nM for the first, 700 nM for the second.

Going from `O=C(CC1CNC(=O)c2cc(-c3ccccc3F)cn21)NCc1cccc(F)c1` (stereo not drawn) [Compound A128-M-B30] to `O=C(CC1CNC(=O)c2cc(-c3ccccc3F)cn21)NCC1CCCCC1` (stereo not drawn) [Compound A128-M-B22], the IC50 falls from 270 nM to 120 nM (2.2-fold). The second is the more potent here.

First: CC(C)(C)NC(=O)CC1CNC(=O)c2cc(-c3cccc(Cl)c3)cn21 (stereo not drawn) [Compound A150-M-B43]
Second: O=C(C[C@@H]1CNC(=O)c2cc(-c3cccc(C(F)(F)F)c3)cn21)N[C@H](CO)Cc1ccccc1 [A133-M-B64 isomer R]
The IC50 of the first is 2.6-fold lower: 790 nM for the first, 2040 nM for the second. The first is the more potent here.

Compared with `O=C(CC1CNC(=O)c2cc(-c3ccc(F)cc3)cn21)NCC1CCCCC1` (stereo not drawn) [Compound A129-M-B22], `CN1CCN(C(=O)CC2CNC(=O)c3cc(-c4cccc(C(F)(F)F)c4)cn32)C(c2ccccc2)C1` (mixture of isomers) [Compound A133-M-B63] is 20-fold higher in IC50: 130 nM for the first, 2540 nM for the second.
